# Results from ChEMBL document CHEMBL1687804, “Comparative efficacies of human simulated exposures of telavancin and vancomycin against methicillin-resistant Staphylococcus aureus with a range of vancomycin MICs in a murine pneumonia model” (Antimicrob Agents Chemother, 2010).
# Activity calls are given as the source filed them. The rule behind the calls is not given here.
# Key:
# [1] = system: Staphylococcus aureus; test: Antibacterial activity against community-associated methicillin-resistant Staphylococcus aureus isolate 156 infected in neutropenic BALB/c mouse lung infection model assessed as reduction of CFU at 110 mg/kg, ip administered every 12 hrs measured after 24 hrs; format: functional, organism-based; set-up: dose 110 mg/kg
# [2] = system: Mus musculus; test: fAUC in BALB/c mouse at 110 mg/kg, sc administered every 12 hrs; conditions: in vivo
# [3] = system: Staphylococcus aureus; test: Antibacterial activity against community-associated methicillin-resistant Staphylococcus aureus isolate 145 infected in neutropenic BALB/c mouse lung infection model assessed as reduction of CFU at 110 mg/kg, ip administered every 12 hrs measured after 24 hrs; format: functional, organism-based; set-up: dose 110 mg/kg
# [4] = system: Staphylococcus aureus; test: Antibacterial activity against vancomycin-heteroresistant Staphylococcus aureus isolate 38 (Mu3) infected in neutropenic BALB/c mouse lung infection model assessed as reduction of CFU at 110 mg/kg, ip administered every 12 hrs measured after 24 hrs; format: functional, organism-based; set-up: dose 110 mg/kg
# [5] = system: Staphylococcus aureus; test: Antibacterial activity against hospital-associated methicillin-resistant Staphylococcus aureus isolate 56 (494) infected in neutropenic BALB/c mouse lung infection model assessed as reduction of CFU at 110 mg/kg, ip administered every 12 hrs measured after 24 hrs; format: functional, organism-based; set-up: dose 110 mg/kg
# [6] = system: Staphylococcus aureus; test: Antibacterial activity against vancomycin-heteroresistant Staphylococcus aureus isolate 443 infected in neutropenic BALB/c mouse lung infection model assessed as reduction of CFU at 110 mg/kg, ip administered every 12 hrs measured after 24 hrs; format: functional, organism-based; set-up: dose 110 mg/kg
# [7] = system: Staphylococcus aureus; test: Antibacterial activity against vancomycin-intermediate Staphylococcus aureus isolate 454 (NRS404) infected in neutropenic BALB/c mouse lung infection model assessed as reduction of CFU at 110 mg/kg, ip administered every 12 hrs measured after 24 hrs; format: functional, organism-based; set-up: dose 110 mg/kg
# [8] = system: Staphylococcus aureus; test: Antibacterial activity against hospital-associated methicillin-resistant Staphylococcus aureus isolate 152 infected in neutropenic BALB/c mouse lung infection model assessed as reduction of CFU at 110 mg/kg, ip administered every 12 hrs measured after 24 hrs; format: functional, organism-based; set-up: dose 110 mg/kg
# [9] = system: Homo sapiens; test: fAUC in human at 1 gram administered every 12 hrs; format: ADME, organism-based; conditions: in vivo
# [10] = system: Staphylococcus aureus; test: Antibacterial activity against vancomycin-intermediate Staphylococcus aureus isolate 435 infected in neutropenic BALB/c mouse lung infection model assessed as reduction of CFU at 110 mg/kg, ip administered every 12 hrs measured after 24 hrs; format: functional, organism-based; set-up: dose 110 mg/kg
# [11] = AUC (0 to 12 hrs) in BALB/c mouse at 110 mg/kg, sc; conditions: plasma
# [12] = system: Staphylococcus aureus; test: Antibacterial activity against hospital-associated methicillin-resistant Staphylococcus aureus isolate 360 infected in neutropenic BALB/c mouse lung infection model assessed as reduction of CFU at 110 mg/kg, ip administered every 12 hrs measured after 24 hrs; format: functional, organism-based; set-up: dose 110 mg/kg
# [13] = system: Staphylococcus aureus; test: Antibacterial activity against vancomycin-intermediate Staphylococcus aureus isolate 453 (NRS23) infected in neutropenic BALB/c mouse lung infection model assessed as reduction of CFU at 110 mg/kg, ip administered every 12 hrs measured after 24 hrs; format: functional, organism-based; set-up: dose 110 mg/kg
# [14] = system: Staphylococcus aureus; test: Antibacterial activity against hospital-associated methicillin-resistant Staphylococcus aureus isolate 336 infected in neutropenic BALB/c mouse lung infection model assessed as reduction of CFU at 110 mg/kg, ip administered every 12 hrs measured after 24 hrs; format: functional, organism-based; set-up: dose 110 mg/kg
# [15] = system: Staphylococcus aureus; test: Antibacterial activity against vancomycin-intermediate Staphylococcus aureus isolate 440 (A6298) infected in neutropenic BALB/c mouse lung infection model assessed as reduction of CFU at 110 mg/kg, ip administered every 12 hrs measured after 24 hrs; format: functional, organism-based; set-up: dose 110 mg/kg
# [16] = system: Staphylococcus aureus; test: Antibacterial activity against hospital-associated methicillin-resistant Staphylococcus aureus isolate 412 infected in neutropenic BALB/c mouse lung infection model assessed as reduction of CFU at 110 mg/kg, ip administered every 12 hrs measured after 24 hrs; format: functional, organism-based; set-up: dose 110 mg/kg
compound,measurement,setting,value
CN[C@H](CC(C)C)C(=O)N[C@H]1C(=O)N[C@@H](CC(N)=O)C(=O)N[C@H]2C(=O)N[C@H]3C(=O)N[C@H](C(=O)N[C@H](C(=O)O)c4cc(O)cc(O)c4-c4cc3ccc4O)[C@H](O)c3ccc(c(Cl)c3)Oc3cc2cc(c3O[C@@H]2O[C@H](CO)[C@@H](O)[C@H](O)[C@H]2O[C@H]2C[C@](C)(N)[C@H](O)[C@H](C)O2)Oc2ccc(cc2Cl)[C@H]1O [VANCOMYCIN],Activity,[1],Active
same,fAUC,[2],196 µg·h/mL
same,Activity,[3],Active
same,Activity,[4],Active
same,Activity,[5],Active
same,Activity,[6],Active
same,Activity,[7],Active
same,Activity,[8],Active
same,fAUC,[9],208 µg·h/mL
same,Activity,[10],Active
same,AUC(0-t) at 12 h,[11],140 µg·h/mL
same,Activity,[12],Active
same,Activity,[13],Active
same,Activity,[14],Active
same,Activity,[15],Active
same,Activity,[16],Active
